Assay results taken from US20260085283A1, “STEM CELL-DERIVED GASTRULOID MODEL, METHOD FOR CONSTRUCTING SAME, AND USE” (Innovation Center of Suzhou Nanjing Medical University, priority 2022, published 2026).

Test system: gastruloid model induced from human induced pluripotent stem cells DYR0100
Experiment: Thalidomide dosing of the in vitro gastruloid induction model (early embryonic teratogenesis model test)
[1] = day 7, dosed group (5 μM and 10 μM) compared with the control group
[2] = day 7, with the increase of dosed concentration (5 μM, 10 μM), significant statistical difference vs blank control and dimethyl sulfoxide control
[3] = day 7 samples, dosed group (5 μM and 10 μM) compared with the control group

Procedure: Two gradients of 5 μM and 10 μM were selected, and a blank control group and a dimethyl sulfoxide group (with thalidomide solvent) were added for testing.
When human induced pluripotent stem cells DYR0100 grew to 80-90% confluence, TrypLE Select was used to digest the cells into single cells, and the cells were resuspended in PBS to obtain a cell suspension 1; cell suspension 1 containing 9.0×10^4 cells was taken, 2 mL of the G1ER culture medium containing Y-27632 was added to resuspend the cells, and then 5 μM, 10 μM of 1% % thalidomide, dimethyl sulfoxide solution and a blank control group were added respectively, a total of 4 groups, to obtain a cell suspension 2; the cell suspension 2 was inoculated into a well of an Agreewell 400™ culture dish coated with the anti-adhesion solution (Anti-adhesion rinsing Solution) in advance. After centrifugation at 800 rpm for 2 minutes using a horizontal centrifuge, the cell amount per microwell was 50-75 cells (each well of the Agreewell 400™ culture dish has 1200 microwells, that is, the cell amount in each microwell was 9.0×10^4/1200=75 cells).
On day 2 of the culture, half of the culture medium was replaced with the G1ER culture medium, and 5 μM and 10 μM of 1% % thalidomide, dimethyl sulfoxide solution and a blank control were added respectively. Half of the culture medium was replaced every day until day 3 of the culture.
When the first stage of induction was completed, samples were taken from the four groups, and recorded with white light, then 4% paraformaldehyde was used for fixation for 30 minutes, and relevant immunofluorescence staining was performed for statistical verification.
On day 3 of the culture, 1.75 mL of the first-stage GIER culture medium was discarded, and the second-stage G2EE culture medium was added slowly along the wall, 5 μM and 10 μM of 1% thalidomide, dimethyl sulfoxide solution and a blank control were added respectively, to prevent the formed gastruloids from floating up from the microwells and then fusing.
On day 4 of the culture, 1.75 mL of the second-stage G2EE culture medium was discarded, and the third-stage aG2EE culture medium was added slowly along the wall, and 5 μM and 10 μM of 1% % thalidomide, dimethyl sulfoxide solution and a blank control were added respectively, to prevent the formed gastruloids from floating up from the microwells and then fusing.
On day 5 of the culture, 1.75 mL of the third-stage aG2EE culture medium was discarded, and the fourth-stage bG2EE culture medium was added slowly along the wall, and 5 μM and 10 μM of 1% % thalidomide, dimethyl sulfoxide solution and a blank control were added respectively, to prevent the formed gastruloids from floating up from the microwells and then fusing. After 24 hours, the culture medium was continuously replaced by 1.75 mL (the bG2EE culture medium) and cultured until day 7.
When the four-stage induction was completed, samples were taken from the four groups, and recorded the white light, then 4% paraformaldehyde was used to fix for 30 minutes, and relevant cell nucleus staining was performed for statistical verification.

O=C1CCC(N2C(=O)c3ccccc3C2=O)C(=O)N1 (stereo not drawn) [Thalidomide]
formation of amniotic cavity and yolk sac (DAPI staining) [1]: could not be formed | internal structure of the gastruloids (DAPI staining of cell nucleus) [1]: relatively disordered | cell amount of the single gastruloid [2]: decreased | volume of the single gastruloid [2]: decreased | internal cavity structure of the gastruloids (white light results) [3]: absent | volume of the gastruloids (white light results) [3]: reduced volume
